# Laboratory results from paper PMC12428582, “2-Styrylquinolines with Push-Pull Architectures as Sensors for β-Amyloid Aggregation with Theranostic Properties” (International Journal of Molecular Sciences, 2025).
# Where two headings read alike, the source gives them in different places.
# Columns and labels:
# Aβ42 = tested on: Aβ42; parameters: method as in PMID 24900645; details: ThT-based fluorometric assay; cited from earlier work
# [1] = target: T1, fibrils of β-amyloid peptide (human Aβ1–42) (Homo sapiens, UniProt P05067); test: Fluorescence titration of sensors with β-amyloid fibrils (Kd by non-linear fitting); type: binding; details: for Kd: fibrils of β-amyloid peptide, sensor 1.0 × 10^−6 M, protein 0 to 2.0 × 10^−6 M, ICT band excitation/emission maxima, read-out: Binding constants values (Kd) and standard deviations
# T1 construct: amyloid β protein fragment 1–42 (MW = 4514.04); purchased Merck-Sigma-Aldrich
# T1 sequence (P05067 672-713 limits assumed): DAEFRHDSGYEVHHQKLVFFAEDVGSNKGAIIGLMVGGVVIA
# Description: Amyloid fibrils from human Aβ1–42 peptide were prepared using a procedure that combines several protocols described in the literature. A 2.2 × 10^−4 M solution of commercially available Aβ1–42 peptide was prepared in a small volume of 100 mM sodium phosphate buffer (pH = 7.04) containing EDTA in concentration 10 mM. This solution was incubated at 37 °C during 72 h in a dry bath supported on an orbital shaker working at 200 rpm. […] Subsequently, 10 μL of the freshly prepared amyloid beta fibrils (c = 1.0 × 10^−4 M) were added to each of the solutions containing the sensors. After a stabilization period of 10 min after each fibril addition at 37 °C, and then equilibration time of 5 min at room temperature, fluorescence emission spectra were recorded for each sensor at their excitation maxima.
# amyloid-beta plaques [2] = target: T2, amyloid-beta plaques (Homo sapiens, UniProt P05067); test: Ex vivo staining of somatosensory cortex of APP/PS1 transgenic mice (confocal microscopy); details: plaques most distinctly labeled at 458 nm excitation, also 488 and 555 nm, none at 594 or 405 nm
# T2 sequence (P05067 672-711 limits assumed): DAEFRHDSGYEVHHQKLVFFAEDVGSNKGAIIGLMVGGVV
# Source text: Compound 6b was chosen for an initial labeling study by assessing its binding properties in the somatosensory cortex of APP/PS1 transgenic mice, a model of Alzheimer’s disease that develops amyloid-beta deposits in the brain from 6 to 7 months of age. […] Amyloid-beta plaques were most distinctly labeled at an excitation wavelength of 458 nm, with effective staining also being observed at 488 nm and 555 nm (Figure 8A–D). In contrast, no staining was detected when exciting at 594 nm or 405 nm (Figure 8E,F).
# The free-floating sections were rinsed in 0.1 M phosphate buffer (PB) and incubated for 2 h at room temperature with a 20 μM solution of each compound 6, prepared by diluting a 1.0 × 10^−4 M stock solution in DMSO with phosphate buffer. After incubation, the sections were rinsed again in 0.1 M phosphate buffer, mounted using ProLong Gold Antifade Reagent (Invitrogen Corporation, Carlsbad, CA, USA), and stored at −20 °C.
# (§1) Image acquisition was performed with a Zeiss LSM 710 confocal laser scanning system (Carl Zeiss Microscopy GmbH, Jena, Germany). They were recorded at 0.5 μm intervals (63 × objective) through separate channels, and ZEN 2012 software (Zeiss) was then used to construct composite images from each optical series by combining the images recorded through the different channels (image resolution 1024 × 1024 pixels; pixel size 188 nm). […]
# amyloid-beta plaques [3] = target: T2, amyloid-beta plaques; test: Ex vivo staining of temporal neocortex of an Alzheimer's disease patient, amyloid-beta antibody co-labelling; details: temporal neocortex of an AD patient; 20 μM compound, 2 h
# Description: (§2) AD human tissue samples were analyzed within the context of a previous study that utilized fixed coronal sections to investigate the progression of Alzheimer’s disease. Brain tissue samples from AD patients were obtained from the Banco de Tejidos Fundación CIEN (Dr. A. Rábano, Área de Neuropatología, Centro Alzheimer, Fundación Reina Sofía, Madrid, Spain). Immediately after removal, the brains were fixed in cold 4% paraformaldehyde in 0.1 M phosphate buffer (pH 7.4). After 2 h, the tissue was sectioned into small blocks and post-fixed in the same medium at 4 °C for 24–48 h. Serial coronal sections (50 μm thick) were prepared using a vibratome (St. Louis, MO, USA), cryoprotected in a 30% sucrose solution in 0.1 M phosphate buffer and stored in an ethylene glycol/glycerol solution at −20 °C until use. […]
# as §1
# [4] = target: T3, neurofibrillary tangles (phosphorylated tau) (Homo sapiens, UniProt P10636); test: Ex vivo staining of temporal neocortex of an Alzheimer's disease patient, AT8 antibody co-labelling; details: temporal neocortex of an AD patient; AT8 antibody detects phosphorylated tau
# T3 sequence (P10636 623-758 limits assumed): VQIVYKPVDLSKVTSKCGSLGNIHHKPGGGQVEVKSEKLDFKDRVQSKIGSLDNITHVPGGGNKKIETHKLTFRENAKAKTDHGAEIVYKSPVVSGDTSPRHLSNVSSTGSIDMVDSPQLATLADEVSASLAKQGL
# Description: as §2, §1
# [5] = tested on: caspase-3 activity in HEK293-Tau3R cells; test: Caspase-3 activity in cells treated with okadaic acid (Ac-DEVD-AMC substrate); type: cell-based, human; details: for Caspase-3 activation induced by okadaic acid: 25 nM okadaic acid with compound at 10 or 100 nM; for Decrease of caspase-3 activity compared to cells treated with okadaic acid alone: 100 nM compound, 25 nM okadaic acid, p < 0.05
# Description: HEK293-Tau3R cells in logarithmic growth phase were digested with trypsin at a concentration of 0.25% and then resuspended in the medium and subcultured in Petri dishes (100 × 15 mm) at a seeding density of 1.5 × 10^5 cells/mL. […] Upon completion of the treatment, cells were collected, washed twice with PBS (pH 7.4) and pelleted by centrifugation at 1000× g for 5 min. The pellet was then resuspended in PBS and centrifuged again at 1000× g for 10 min at 4 °C to remove the supernatant. The resulting cell pellets were lysed in a buffer containing 10 mM Tris–HCl (pH 7.5) with 0.5% CHAPS, 1 mM MgCl2, 1 mM EGTA, 1 mM EDTA, 10% glycerol, 5 mM β-mercaptoethanol, 1 mM DTT, 1 mM phenylmethylsulfonyl fluoride (PMSF), 100 μM leupeptin and 1 μM pepstatin. Following a 30 min incubation on ice, the lysates were clarified by centrifugation at 13,000× g for 5 min. Protein concentrations in the supernatants were determined using the bicinchoninic acid (BCA) assay.
# The caspase 3 activity assay performed using the known fluorogenic substrate Ac-DEVD-AMC. HEK293-Tau3R cells were harvested, washed with ice-cold PBS and lysed in 100 μL of lysis buffer containing 50 mM HEPES (pH 7.4), 100 mM NaCl, 0.1% CHAPS, 10% glycerol, 10 mM DTT, 0.1 mM EDTA and protease inhibitors (1 μg/μL each of leupeptin, pepstatin and aprotinin). The lysates were, sonicated and centrifuged at 14,000× g for 15 min at 4 °C. For the assay, 20 μg of cellular protein from the lysates were incubated with 20 µM caspase 3 substrate in assay buffer (50 mM HEPES, pH 7.4, 100 mM NaCl, 0.1% CHAPS, 10% glycerol, 10 mM DTT) for 2 h at 37 °C. Substrate cleavage was monitored using a microplate fluorescence reader with excitation at 360 nm and emission at 460 nm. Caspase activity was determined based on the cleavage of the fluorogenic substrate and is expressed as fluorescence arbitrary units.
# [6] = target: T3, neurofibrillary tangles (phosphorylated tau); parameters: method as in PMID 16914838; details: brain samples from AD patients; cited from earlier work
# β-amyloid protein = details: read-out: ThT-β-amyloid protein dissociation constant Kd, cited from earlier work
# Aβ1–42 peptide = target: T4, Aβ1–42 peptide (Homo sapiens, UniProt P05067); test: Aβ1–42 aggregation inhibition, Thioflavin T fluorescence; type: biochemical; details: 0.5 μM compound; Figure 11
# T4 construct: amyloid β protein fragment 1–42 (MW = 4514.04); purchased Merck-Sigma-Aldrich
# T4 sequence (P05067 672-713 limits assumed): as the sequence (P05067 672-713 limits assumed) above
# Description: A 0.5 mg/mL solution of Aβ1–42 peptide in 10% aqueous ammonium hydroxide was sonicated for 30 min to achieve monomerization. Solvent evaporation in a SpeedVac afforded a thin film that was dissolved in 60 mM NaOH, adjusting its concentration to 20 μM, as a stock solution. For aggregation inhibition experiments, 2 μM Aβ1–42 peptide was mixed with the styrylquinolines 6 and incubated for 4 days at 37 °C. The degree of Aβ aggregation was determined using Thioflavin-T fluorescence analysis.
# All assays were done on flat black 96-well plates. […] Peptide Aβ1–42 alone in buffer reaction served as a control for the screen. Fluorescence values were measured at 37 °C in replicates using a microplate reader, with the measurement taken at 24 h intervals for 72 h. […] All assays were performed at least twice to ensure reproducibility.
# [7] = target: T5, AcPHF6 (Ac-VQIVYK-NH2) tau-hexapeptide (Homo sapiens, UniProt P10636); test: AcPHF6 aggregation inhibition, Thioflavin T fluorescence; type: biochemical; details: 1 μM, non-toxic concentration; Figure 12
# T5 construct: purchased Bachem (Bubendorf BL, Switzerland)
# Description: This in vitro assay was performed using the N-acetylated and C-amidated hexapeptide AcPHF6 (Ac-VQIVYK-NH2), derived from the ^306VQIVYK^311 sequence found in the native […]. This region of the tau protein is involved in fibril aggregation processes and is commonly used as a model for screening tau aggregation inhibitors.
# In brief, AcPHF6 peptide was dissolved in 50 mM phosphate buffer (pH 7.4) at a concentration of 1 mM and vortexed to obtain a homogeneous solution. For aggregation inhibition experiments, 100 μM AcPHF6 peptide was mixed with compounds 6 and incubated at 37 °C for 4 days. The degree of AcPHF6 aggregation was determined using Thioflavin-T fluorescence analyses.
# Briefly, the screen of the styrylquinolines was performed based on Thioflavin T fluorescence. All assays were done on flat black 96-well plates. […] Immediately before the experiment, 1 μM heparin was added to initiate AcPHF6 aggregation. AcPHF6 alone in buffer reaction served as a control for the screen. Fluorescence values were taken at 24 h intervals for 72 h, at 37 °C and in replicates, using a microplate reader. […] All assays were performed at least twice to ensure reproducibility.
# HEK293-Tau3R cells = test: Cell viability, MTT assay; type: cell-based, human; details: 10 to 50 nM for 24 h
# Description: Cells were cultured in DMEM medium supplemented with 10% fetal bovine serum, 1 mM pyruvate, 2 mM glutamine and 0.2 mg/mL of the antibiotic zeocin. Cultures were maintained at 37 °C in a humidified atmosphere containing 5% CO2.
# HEK293-Tau3R cells were seeded into 96-well polystyrene plates at a density of 20,000 cells per well and incubated at 37 °C for 24 h to allow cell adhesion. […] Cell viability was assessed by measuring metabolic activity through the reduction of MTT (3-(4,5-dimethylthiazol-2-yl)-2,5-diphenyltetrazolium bromide) to insoluble formazan. Absorbance values were measured at 550 nm using a microplate reader.
molecule,measurement,setting,value
Cc1ccc2nc(/C=C/c3ccc(N)cc3)ccc2c1 [A],Inhibition of Aβ42 aggregation,Aβ42,moderate fibrillization inhibitor and amyloid binder
"CCN(CC)c1ccc(/C=C/c2ccc3cc(C=C(C#N)C#N)ccc3n2)cc1 [6b, (E)-2-((2-(4-(Diethylamino)styryl)quinolin-6-yl)methylene)malononitrile]",Kd,[1],7.93 ± 0.63 µM
same,Labeling of amyloid-beta deposits,amyloid-beta plaques [2],specific binding to β-sheet amyloid structures
same,Labeling of amyloid-beta plaques,amyloid-beta plaques [3],specifically labeled amyloid-beta plaques
same,Labeling of neurofibrillary tangles,[4],did not label neurofibrillary tangles
same,Caspase-3 activation induced by okadaic acid,[5],significantly reduced
Thioflavin S,Binding to beta-sheet structures and phosphorylated tau,[6],bind both beta-sheet structures and phosphorylated tau
"CN(C)c1ccc(/C=C/c2ccc3cc(C=C(C#N)C#N)ccc3n2)cc1 [6a, (E)-2-((2-(4-(Dimethylamino)styryl)quinolin-6-yl)methylene)malononitrile]",Kd,[1],2.43 ± 0.32 µM
"N#CC(C#N)=Cc1ccc2nc(/C=C/c3ccc(N4CCOCC4)cc3)ccc2c1 [6d, (E)-2-((2-(4-Morpholinostyryl)quinolin-6-yl)methylene)malononitrile]",Kd,[1],6.6 ± 0.79 µM
same,Caspase-3 activation induced by okadaic acid,[5],significantly reduced
"Cc1ccc2c(c1)sc(-c1ccc(N(C)C)cc1)[n+]2C [ThT, Thioflavin T]",Kd,β-amyloid protein; ref 57,0.8 µM
same,Kd,β-amyloid protein; ref 58,2.56 µM
same,Kd,β-amyloid protein; ref 59,30.4 µM
same,Kd,β-amyloid protein; ref 60,46 µM
"CC(=O)OCCN(CCOC(C)=O)c1ccc(/C=C/c2ccc3cc(C=C(C#N)C#N)ccc3n2)cc1 [6e, (E)-((4-(2-(6-(2,2-Dicyanovinyl)quinolin-2-yl)vinyl)phenyl)azanediyl)bis(ethane-2,1-diyl) diacetate]",Kd,[1],10.2 ± 1.53 µM
same,"Aβ1–42 aggregation inhibition, ranking",Aβ1–42 peptide,most active compound
same,"AcPHF6 aggregation inhibition, ranking",[7],best result
same,Caspase-3 activation induced by okadaic acid,[5],significantly reduced
same,Decrease of caspase-3 activity compared to cells treated with okadaic acid alone,[5],very similar results
"C=C1[C@@H](O)[C@@H]2O[C@]3(CC[C@H](/C=C/[C@@H](C)[C@@H]4CC(C)=C[C@@]5(O[C@H](C[C@@](C)(O)C(=O)O)CC[C@H]5O)O4)O3)CC[C@H]2O[C@@H]1[C@@H](O)C[C@H](C)[C@H]1O[C@@]2(CCCCO2)CC[C@H]1C [okadaic acid, reference compound]",Concentrations at which a marked decline in cell viability was observed,HEK293-Tau3R cells,above 30 nM
same,Concentration from which caspase 3 activity began to rise,[5]; okadaic acid 10–50 nM,≥ 25 nM
"N#CC(C#N)=Cc1ccc2nc(/C=C/c3ccc(N4CCCCC4)cc3)ccc2c1 [6c, (E)-2-((2-(4-(Piperidin-1-yl)styryl)quinolin-6-yl)methylene)malononitrile]",Kd,[1],8.19 ± 0.61 µM
same,Labeling of amyloid-beta plaques,amyloid-beta plaques [3],specifically labeled amyloid-beta plaques
same,Labeling of neurofibrillary tangles,[4],did not label neurofibrillary tangles
(E)-2-((2-(2-(4-(Dimethylamino)naphthalen-1-yl)vinyl)quinolin-6-yl)-methylene)malononitrile [6g],Enhancement of fluorescence emission in the presence of beta-amyloid protein fibrils,"[1]; excitation wavelength characteristic of each compound, Figure 6",greater difficulty in binding to the beta sheet structure of the protein
same,Caspase-3 activation induced by okadaic acid,[5],significantly reduced
same,Decrease of caspase-3 activity compared to cells treated with okadaic acid alone,[5],more than 50%
